Measured values published in patent US5807900A, “Method for identifying compounds having increased activity for the repair of skin photodamage” (priority 1995, dated 1998).
Like-named read-outs stand apart in the source and are kept apart here.

Experiments:
human RAR-α [1] = test: RAR-α transactivation assay (SeAP reporter, COS cells); format: cell-based; details: for Transactivation % max (α): relative to all-trans-retinoic acid at same concentration (1,000 nM or 10,000 nM)
Procedure: (§1) Retinoid Receptor Transactivation Assays
(§2) Transactivation assays were performed essentially as described in Apfel et al., supra. For the RAR transcription activation test system, the secreted alkaline phosphatase gene (SeAP) is used as reporter. To have a screening system specific for the transfected receptor, chimeric receptors are used. These contain an estrogen receptor DNA binding domain and therefore recognize the estrogen response element (ERE) which no endogenous RAR's in mammalian cells will recognize.
(§3) The transactivation assay system has been adapted to 96-well plates and most steps are done by a robot. Briefly, on day 1 confluent COS cells are subcultured at an equivalent density onto 96-well plates in DMEM+10% charcoal stripped serum. On day 2 DNA is prepared for transfection by mixing the following: 10 μg vit-TK-SeAP reporter plasmid, 2 μg RAR expression plasmid, 2 μg transfection control plasmid and 30 μl Transfectam (lipopolyamine transfection reagent). Cells are washed twice with serum-free medium and DNA/transfectam mix added. After 1 hour medium is removed and replaced with growth medium containing test retinoids. On day 4 or 5 the culture supernatant is removed, heated to 65° for 5 min to inactivate nonspecific phosphatases, and diluted 1:10 with water. 20 μl samples are added to 100 μl of phosphatase substrate in buffer. After 1 hour at 37° the luminescence is measured in a 96-well luminometer.
(§4) 100 μl of β-galactosidase substrate is added to the adherent cells. Plates are incubated for 1 hour at 37° and the supernatants transferred to separate plates for quantitation of β-galactosidase activity by luminescence measurement. Transactivation results are expressed as the ratio of SeAP/β-galactosidase activity for each well to correct for well-to-well variation in transfection efficiency.
(§5) Data are means of values obtained from two or more individual experiments, rounded off to two significant figures. […] The maximum transactivation activity is determined from the plot where increasing dosage provides little or no additional activity, i.e., where the plot begins to level off. For active retinoids the highest concentration tested is 1000 nM.

RAR-β = RAR-β transactivation assay (SeAP reporter, COS cells); format: cell-based, human; details: for Transactivation % max (β): relative to all-trans-retinoic acid at same concentration (1,000 nM or 10,000 nM)
Procedure: as §1, §2, §3, §4, §5

photoaged skin = details: human, topical, literature studies; cited from earlier work
human RAR-γ [2] = test: RAR-γ transactivation assay (SeAP reporter, COS cells); format: cell-based; details: for Transactivation % max (γ): relative to all-trans-retinoic acid at same concentration (1,000 nM or 10,000 nM)
Procedure: as §1, §2, §3, §4, §5

photodamaged skin = test: Measurement of photodamage repair in the hairless mouse model; format: in vivo, Hairless mice (female, HRS/J strain); details: for Photodamage repair activity (scale 0 to 4): UVB-irradiated, topical in acetone three times per week, three doses
Text: The ability of a composition of the invention to induce repair of photodamaged skin may be determined by any conventional means. One conventional method of determining the ability of a topical composition to repair photodamaged skin is the hairless mouse model described by Kligman et al., supra. […] In this model, repair is defined by the appearance of a zone of normalized dermis extending from the epidermis down to the layer of compressed elastin. The extent of repair is reflected by the width of this zone. […] The average width of the repair zone is then calculated by dividing the area by the length of the histological section that was measured.
The width of the repair zone is […] an activity value of 4.
Measurement of Photodamage Repair
Hairless mice (female, HRS/J strain, Jackson Labs, 5-7 weeks old at the start of the experiments) were housed in yellow light and irradiated three times per week with a bank of 8 Westinghouse Sunlamps (FS120) placed about 20 cm above the animals. Daily doses were 0.03 J/cm^2 for two weeks, 0.06 J/cm2 for two weeks and 0.08 J/cm2 thereafter. The radiation dose is controlled by an International Light Model IL844A Phototherapy Exposure Control and a model SEE240 detector.
To effect repair of the dermal damage, the UVB irradiation was discontinued and the animals were divided into groups of approximately eight and treated three times per week with various concentrations of the retinoids dissolved in acetone. Stock solutions are made up freshly every week in subdued light at concentrations such that the dose is delivered in 100 μl volume and applied topically with a plastic pipette to an area of about 10 cm^2 on the back of the animal. All dosing was done under yellow light. A control group treated with acetone alone was included.
Two-cm strips of dorsal skin were taken longitudinally down the center of the irradiated (and treated) area. Elastin fibers were stained with Luna's aldehyde fuchsin and collagen by Van Gieson. In this model, repair is defined by the appearance of a normalized dermis extending from the epidermis down to the layer of compressed elastin. The extent of repair is reflected by the width of this zone. […] Twenty-four fields each of which, at 100X magnification, represents a section of tissue 0.57 mm long, are examined and the area calculated. The results are reported as the average area per field in mm^2. Thus the average width of the repair zone can be obtained by dividing this average area by 0.57 mm. […] All microscopic fields are included in the calculations of average area (or width). Data are analyzed by Student's t-test.
Compounds are tested at three doses and an approximate ED50 calculated.

human RAR-γ [3] = test: Binding assay for human RAR-γ (displacement of 3H-retinoic acid); details: 3H-retinoic acid displacement, mean of two or more experiments
Procedure: (§6) Binding Assay for Human RAR-α, RAR-β and RAR-γ
(§7) Binding assays were performed essentially as described in Apfel et al., supra. […] Extracts containing the receptors were used in a competitive binding assay which depends upon the ability of increasing concentrations of a retinoid to displace ^3 H-retinoic acid. In a typical assay, 0.2 to 0.4 picomoles of receptors were incubated in 0.2 ml of 50 mM Tris HCl, pH 7.4, 50 mM NaCl, 2 mM EDTA (binding buffer) containing 0.5% gelatin, 1% DMSO, 2-5 nM ^3 H-retinoic acid and various concentrations of unlabelled retinoids. After 3-5 hours at 22° C., 0.15 ml of chilled charcoal/dextran suspension (5% Norit A/0.5% dextran T-40 in binding buffer) were added for 15 min at 4° C. The tubes were centrifuged at 12,000 x g for 15 minutes and the supernates counted. Binding parameters were calculated from competition curves using the Ligand program.
(§8) Data are means of values obtained from two or more individual experiments, rounded off to two significant figures. […] When binding inhibition at 10,000 nM is less than 50%, >10,000 is indicated.

human RAR-β = molecular target: T1, human RAR-β (Homo sapiens, UniProt P10826); test: Binding assay for human RAR-β (displacement of 3H-retinoic acid); details: 3H-retinoic acid displacement, mean of two or more experiments
T1 sequence (P10826 201-455 limits assumed): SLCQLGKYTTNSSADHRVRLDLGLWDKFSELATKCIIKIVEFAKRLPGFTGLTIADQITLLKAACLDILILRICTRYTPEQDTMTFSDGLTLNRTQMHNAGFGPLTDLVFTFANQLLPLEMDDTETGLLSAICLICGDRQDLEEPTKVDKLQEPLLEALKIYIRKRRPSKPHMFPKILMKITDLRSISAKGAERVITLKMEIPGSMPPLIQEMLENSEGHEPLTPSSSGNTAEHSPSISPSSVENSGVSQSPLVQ
Procedure: as §6, §7, §8

human RAR-α [4] = molecular target: T2, human RAR-α (Homo sapiens, UniProt P10276); test: Binding assay for human RAR-α (displacement of 3H-retinoic acid); details: 3H-retinoic acid displacement, mean of two or more experiments
T2 sequence (P10276 201-462 limits assumed): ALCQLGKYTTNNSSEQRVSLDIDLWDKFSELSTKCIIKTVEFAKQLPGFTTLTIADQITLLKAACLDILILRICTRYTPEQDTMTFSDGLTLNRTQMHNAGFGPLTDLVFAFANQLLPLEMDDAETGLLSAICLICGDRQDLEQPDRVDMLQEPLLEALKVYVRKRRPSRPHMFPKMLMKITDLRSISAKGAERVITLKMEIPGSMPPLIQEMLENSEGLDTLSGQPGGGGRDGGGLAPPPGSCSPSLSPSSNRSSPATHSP

[5] = COS cells, 50% of the compound's own maximum, set to highest concentration tested (usually 1000 nM) if no maximum reached, read-out: Transactivation ED50 (α)
[6] = COS cells, 50% of the compound's own maximum, set to highest concentration tested (usually 1000 nM) if no maximum reached, read-out: Transactivation ED50 (β)
[7] = RAR-γ, COS cells, 50% of the compound's own maximum, set to highest concentration tested (usually 1000 nM) if no maximum reached, read-out: Transactivation ED50 (γ)

| EC50 (human RAR-α [1]; [5]) [nM] | EC50 (RAR-β; [6]) [nM] | IC50 (human RAR-γ [3]) [nM] | IC50 (human RAR-β) [nM] | EC50 (human RAR-γ [2]; [7]) [nM] | IC50 (human RAR-α [4]) [nM] | SMILES | EC50 (human RAR-α [1]; read-out: Transactivation ED50 (α), COS cells, 50% of the compound's own maximum, set to highest concentration tested (usually 1000 nM) if no maximum reached) [nM] | Transactivation % max (α) (human RAR-α [1]) [%] | EC50 (RAR-β; read-out: Transactivation ED50 (β), COS cells, 50% of the compound's own maximum, set to highest concentration tested (usually 1000 nM) if no maximum reached) [nM] | Transactivation % max (β) (RAR-β) [%] | Clinical improvement of photodamaged/photoaged skin (photoaged skin) | EC50 (human RAR-γ [2]) [nM] | Transactivation % max (γ) (human RAR-γ [2]; RAR-γ) [%] | Photodamage repair activity (scale 0 to 4) (photodamaged skin) | ED50 for photodamage repair (photodamaged skin; μg of test compound applied to 10 cm^2 of skin area, standard retinoid) [µg] |
| --- | --- | --- | --- | --- | --- | --- | --- | --- | --- | --- | --- | --- | --- | --- | --- |
| – | – | – | – | – | – | CC1=C(/C=C/C(C)=C/C=C/C(C)=C\C(=O)O)C(C)(C)CCC1 [B, 13-cis retinoic acid, reference compound] | […] | […] | […] | […] | efficacy of isotretinoin in photodamage has been demonstrated | […] | […] | 2 (an ED50 of 10 μg) | 10 |
| 1000 | 1000 | > 10000 | > 10000 | 1000 | > 10000 | CCS(=O)(=O)c1ccc(/C=C(\C)c2ccc3c(c2)C(C)(C)CCC3(C)C)cc1 [I] | – | 10 | – | 21 | – | – | 21 | 3 (an ED50 of 1 μg or less (highly active)) | – |
| 1000 | 1000 | > 10000 | > 10000 | 1000 | > 10000 | C/C(=C\c1ccccc1)c1ccc2c(c1)C(C)(C)CCC2(C)C [H] | – | 12 | – | 10 | – | – | 19 | 0 | – |
| 1000 | 150 | 670 | 7600 | 29 | > 10000 | CCCCCOc1cc2c(cc1/C=C/c1ccc(C(=O)O)cc1)C(C)(C)CCC2(C)C [P] | – | 16 | – | 60 | – | – | 90 | 4 | – |
